Test system: 565726-208-R1-J5-PDC complex spheroids, growth inhibition
Experiment: Anticancer human tumor 565726-208-R1-J5-PDC patient-derived pancreatic adenocarcinoma cell line growth inhibition [RAS]
Conditions: for viability, T/C: stronger effect = lower value; active = viability on the fitted dose curve at most 10% of control; inactive = the rest
Procedure, shortened: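 Tumour cells grown as complex spheroids with HUVEC endothelial cells and mesenchymal stem cells, treated with RAS pathway inhibitor combinations. Each agent spans half-log steps from near clinical Cmax, or 10 microM where Cmax is unknown.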
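Note: spheroids exposed to compounds for seven days before readout.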
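Throughout, for viability, T/C: 100% = DMSO vehicle control viability.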

Cc1nc(N2CCC3(CC2)COC(C)C3N)c(CO)nc1Sc1ccnc(N)c1Cl (stereo not drawn) + CCn1c(-c2cccnc2C(C)OC)c2c3cc(ccc31)N1CCOC(CC(NC(=O)C(C(C)C)N(C)C(=O)C3(F)CCN(C(=O)C#CC(C)(C)N(C)C)CC3)C(=O)N3CCCC(N3)C(=O)OCC(C)(C)C2)C1
inactive: viability, T/C (second compound 0.000949 µM, first compound 0.0316 µM) 95.1% | viability, T/C (second compound 0.000949 µM, first compound 0.1 µM) 92.8% | viability, T/C (second compound 0.000949 µM, first compound 0.316 µM) 84.9% | viability, T/C (second compound 0.000949 µM, first compound 1 µM) 73.7% | viability, T/C (second compound 0.000949 µM, first compound 3.16 µM) 80% | viability, T/C (second compound 0.000949 µM, first compound 10 µM) 66.5% | viability, T/C (second compound 0.003 µM, first compound 0.0316 µM) 104% | viability, T/C (second compound 0.003 µM, first compound 0.1 µM) 97% | viability, T/C (second compound 0.003 µM, first compound 0.316 µM) 86.6% | viability, T/C (second compound 0.003 µM, first compound 1 µM) 77% | viability, T/C (second compound 0.003 µM, first compound 3.16 µM) 71% | viability, T/C (second compound 0.003 µM, first compound 10 µM) 70.6% | viability, T/C (second compound 0.00949 µM, first compound 0.0316 µM) 83.4% | viability, T/C (second compound 0.00949 µM, first compound 0.1 µM) 97.3% | viability, T/C (second compound 0.00949 µM, first compound 0.316 µM) 86.3% | viability, T/C (second compound 0.00949 µM, first compound 1 µM) 76.5% | viability, T/C (second compound 0.00949 µM, first compound 3.16 µM) 79.7% | viability, T/C (second compound 0.00949 µM, first compound 10 µM) 71.6% | viability, T/C (second compound 0.03 µM, first compound 0.0316 µM) 95.5% | viability, T/C (second compound 0.03 µM, first compound 0.1 µM) 87.3% | viability, T/C (second compound 0.03 µM, first compound 0.316 µM) 92.8% | viability, T/C (second compound 0.03 µM, first compound 1 µM) 89.3% | viability, T/C (second compound 0.03 µM, first compound 3.16 µM) 81.5% | viability, T/C (second compound 0.03 µM, first compound 10 µM) 69.6% | viability, T/C (second compound 0.0949 µM, first compound 0.0316 µM) 81% | viability, T/C (second compound 0.0949 µM, first compound 0.1 µM) 98.2% | viability, T/C (second compound 0.0949 µM, first compound 0.316 µM) 85.1% | viability, T/C (second compound 0.0949 µM, first compound 1 µM) 69.8% | viability, T/C (second compound 0.0949 µM, first compound 3.16 µM) 77.4% | viability, T/C (second compound 0.0949 µM, first compound 10 µM) 78.8% | viability, T/C (second compound 0.3 µM, first compound 0.0316 µM) 91.2% | viability, T/C (second compound 0.3 µM, first compound 0.1 µM) 79.8% | viability, T/C (second compound 0.3 µM, first compound 0.316 µM) 79.4% | viability, T/C (second compound 0.3 µM, first compound 1 µM) 69.8% | viability, T/C (second compound 0.3 µM, first compound 3.16 µM) 70.2% | viability, T/C (second compound 0.3 µM, first compound 10 µM) 59.2%
> 10 µM: IC50 (curve of first compound, second compound 0.000949 µM) | IC50 (curve of first compound, second compound 0.003 µM) | IC50 (curve of first compound, second compound 0.00949 µM) | IC50 (curve of first compound, second compound 0.03 µM) | IC50 (curve of first compound, second compound 0.0949 µM) | IC50 (curve of first compound, second compound 0.3 µM)

Cc1nc(N2CCC3(CC2)COC(C)C3N)c(CO)nc1Sc1ccnc(N)c1Cl (stereo not drawn)
> 10 µM: IC50 (curve of compound)
inactive: viability, T/C (compound 0.0316 µM) 106% [middle of 4 runs] | viability, T/C (compound 0.316 µM) 85.7% [middle of 4 runs] | viability, T/C (compound 1 µM) 81.1% [middle of 4 runs]

C=CC(=O)N1CCN(c2nc(OCC3CCCN3C)nc3c(F)c(-c4nc(N)cc(C)c4C(F)(F)F)c(Cl)cc23)C(C)C1 (stereo not drawn) + C#Cc1c(F)ccc2cc(O)cc(-c3ncc4c(N5CC6CCC(C5)N6)nc(OCC56CCCN5CC(F)C6)nc4c3F)c12
inactive: viability, T/C (second compound 0.0316 µM, first compound 0.00316 µM) 95.7% | viability, T/C (second compound 0.0316 µM, first compound 0.01 µM) 138% | viability, T/C (second compound 0.0316 µM, first compound 0.0316 µM) 98.9% | viability, T/C (second compound 0.0316 µM, first compound 0.1 µM) 103% | viability, T/C (second compound 0.0316 µM, first compound 0.316 µM) 87% | viability, T/C (second compound 0.0316 µM, first compound 1 µM) 104% | viability, T/C (second compound 0.1 µM, first compound 0.00316 µM) 101% | viability, T/C (second compound 0.1 µM, first compound 0.01 µM) 124% | viability, T/C (second compound 0.1 µM, first compound 0.0316 µM) 90.8% | viability, T/C (second compound 0.1 µM, first compound 0.1 µM) 94.2% | viability, T/C (second compound 0.1 µM, first compound 0.316 µM) 110% | viability, T/C (second compound 0.1 µM, first compound 1 µM) 106% | viability, T/C (second compound 0.316 µM, first compound 0.00316 µM) 94.2% | viability, T/C (second compound 0.316 µM, first compound 0.01 µM) 132% | viability, T/C (second compound 0.316 µM, first compound 0.0316 µM) 84.7% | viability, T/C (second compound 0.316 µM, first compound 0.1 µM) 107% | viability, T/C (second compound 0.316 µM, first compound 0.316 µM) 87.7% | viability, T/C (second compound 0.316 µM, first compound 1 µM) 113% | viability, T/C (second compound 1 µM, first compound 0.00316 µM) 88.8% | viability, T/C (second compound 1 µM, first compound 0.01 µM) 113% | viability, T/C (second compound 1 µM, first compound 0.0316 µM) 81.3% | viability, T/C (second compound 1 µM, first compound 0.1 µM) 77.1% | viability, T/C (second compound 1 µM, first compound 0.316 µM) 82.8% | viability, T/C (second compound 1 µM, first compound 1 µM) 84.2% | viability, T/C (second compound 3.16 µM, first compound 0.00316 µM) 65.5% | viability, T/C (second compound 3.16 µM, first compound 0.01 µM) 88.7% | viability, T/C (second compound 3.16 µM, first compound 0.0316 µM) 70% | viability, T/C (second compound 3.16 µM, first compound 0.1 µM) 65.6% | viability, T/C (second compound 3.16 µM, first compound 0.316 µM) 83% | viability, T/C (second compound 3.16 µM, first compound 1 µM) 93.5% | viability, T/C (second compound 10 µM, first compound 0.00316 µM) 52.3% | viability, T/C (second compound 10 µM, first compound 0.01 µM) 73.5% | viability, T/C (second compound 10 µM, first compound 0.0316 µM) 78.3% | viability, T/C (second compound 10 µM, first compound 0.1 µM) 72.4% | viability, T/C (second compound 10 µM, first compound 0.316 µM) 69.5% | viability, T/C (second compound 10 µM, first compound 1 µM) 71%
> 1 µM: IC50 (curve of first compound, second compound 0.0316 µM) | IC50 (curve of first compound, second compound 0.1 µM) | IC50 (curve of first compound, second compound 0.316 µM) | IC50 (curve of first compound, second compound 1 µM) | IC50 (curve of first compound, second compound 3.16 µM) | IC50 (curve of first compound, second compound 10 µM)

From PubChem BioAssay AID2060899 (Molecular Pharmacology Branch, DTP, NCI, 2025)
